# Patent US12662458B2, “Solid forms of a compound” (Denali Therapeutics Inc., priority 2020, dated 2026)
# Key:
# [1] = Solid form stability on storage; type: physicochemical; conditions: for solid form stability (form change, weight gain, purity changes): 60° C., up to 4 weeks
# Description: To evaluate the solid form stability, Forms A and C were stored under 25° C./60% RH (open), 40° C./75% RH (open), and 60° C. for up to 4 weeks. Samples were analyzed by XRPD, TGA, DSC, and HPLC purity.
# [2] = Plasma PK in monkeys, nanosuspension; type: in vivo; conditions: nanosuspension in deionized water, single oral 25 mg/kg
# Description: Non-naïve male cynomolgus monkeys were used in this study with at least a 7-day washout period prior to dosing Animals were administered a nanosuspension of Form C as a single oral administration at 25 mg/kg. The nanosuspension was prepared by suspending nano-milled Form C in deionized water (5 mg/mL) to obtain an opaque homogenous suspension. Blood samples were collected at 0.25, 0.5, 1, 2, 4, 8, 24, 48, and 72 hours post-dose. Concentrations of Compound I in plasma samples were determined by LC/MS/MS.
# A separate study was performed for a nanosuspension of Form A.
# [3] = Plasma PK in rats, nanosuspension; type: in vivo; conditions: nanosuspension in deionized water, single oral 25 mg/kg
# Description: Wistar Han rats were administered a nanosuspension of Form A or Form C as a single oral administration at 25 mg/kg. The nanosuspensions were prepared by suspending nano-milled Form A or Form C in deionized water (2.5 mg/mL) to obtain opaque homogenous suspensions. Blood samples were collected at 0.25, 0.5, 1, 2, 4, 8, 24, 48, and 72 hours post-dose. Concentrations of Compound I in plasma samples were determined by LC/MS/MS.
# [4] = Biorelevant media solubility of Forms A and C; type: physicochemical; conditions: for Solubility / Final XRPD: 37° C.
# Description: Biorelevant media solubility of Forms A and C were studied in water, SGF, FaSSIF, and FeSSIF at 37° C. 10-20 mg of Form A or C was weighed into 2-3 mL glass vials and media was added to achieve a solids loading of ˜5 mg/mL. Each slurry was magnetically agitated at 750-1000 rpm at 37° C., filtered via centrifugation, and the supernatant was analyzed by HPLC to determine solubility. In all cases, there was no polymorphic form change observed by XRPD analysis of the filtered solids.
# [5] = Plasma PK in monkeys, powder in capsule; type: in vivo; conditions: single oral 15 mg/kg; for AUC(0-t): read-out: AUC0-24 h
# Description: Non-naïve male cynomolgus monkeys were used in this study with at least a 7-day washout period prior to dosing Animals were administered micronized Form A, unmicronized Form A, or micronized Form C powder in capsule by single oral administration at 15 mg/kg. The capsules were prepared according to the animals' body weights on dosing day. Blood samples were collected at 0.25, 0.5, 1, 2, 4, 8, 24, 48, and 72 hours post-dose.
# [6] = Dynamic vapor sorption (hygroscopicity); type: physicochemical; conditions: DVS
# Description: DVS analysis was carried out using a Surface Measurement System DVS Intrinsic analyzer. The instrument was calibrated with standard weights. Approximately 15-20 mg of sample was loaded into a pan for analysis. The sample was analyzed at 25° C. in 10% relative humidity (RH) steps from 0 to 95% RH (adsorption cycle) and from 95 to 0% RH (desorption cycle). The movement from one step to the next occurred either after satisfying the equilibrium criterion of 0.002% weight change (dm/dt) or, if the equilibrium criterion was not met, after ten hours.
# [7] = Slurry interconversion of Form A and Form C; type: physicochemical
# Description: Form A slurry converts to Form C in the presence of Form C seed. For example, Form A (10 mg) and Form C (10 mg) were stirred in saturated IPA/water and MeCN/water at temperatures ranging from 5-60° C. […] Form A could only be prepared in a location uncontaminated with Form C (e.g., locations where From C had not previously existed).
# [8] = Storage stability of amorphous Form D; type: physicochemical
# Description: Form A was kept in an oven at 150° C. until all solids melted. The melt was kept at 150° C. for 5 minutes and was then taken out of the oven and cooled to room temperature.
# [9] = 25° C./60% RH (open), 40° C./75% RH (open)
# [10] = filtered solids after slurry in FaSSIF
# [11] = filtered solids after slurry in FeSSIF
# [12] = filtered solids after slurry in SGF
# [13] = filtered solids after slurry in Water
# [14] = male, cynomolgus monkey, po, 15 mg/kg, micronized (d90 5)
# [15] = male, cynomolgus monkey, po, 15 mg/kg, unmicronized (d90 43)
# [16] = micronized (d90 5), cynomolgus monkeys
smiles,measurement,setting,value
"O=C(COc1ccc(Cl)cc1)NC12CC(c3nnc([C@H]4C[C@@H](OC(F)(F)F)C4)o3)(C1)C2 (single isomer, unassigned) [Form A, 2-(4-chlorophenoxy)-N-[3-[5-[cis-3-(trifluoromethoxy)cyclobutyl]-1,3,4-oxadiazol-2-yl]-1-bicyclo[1.1.1]pentanyl]acetamide]",DSC endotherm,"[1]; 25° C./60% RH (open), 1 week",125.6 °C
same,HPLC purity,"[1]; 25° C./60% RH (open), 1 week",99.3%
same,"TGA loss (%, to 150° C.)","[1]; 25° C./60% RH (open), 1 week",1.8%
same,XRPD,"[1]; 25° C./60% RH (open), 1 week",Form A
same,DSC endotherm,"[1]; 25° C./60% RH (open), 4 week",125.3 °C
same,HPLC purity,"[1]; 25° C./60% RH (open), 4 week",98.8%
same,"TGA loss (%, to 150° C.)","[1]; 25° C./60% RH (open), 4 week",0.6%
same,XRPD,"[1]; 25° C./60% RH (open), 4 week",Form A
same,"solid form stability (form change, weight gain, purity changes)",[1]; [9],"No form change, weight gain, or purity changes"
same,DSC endotherm,"[1]; 40° C./75% RH (open), 1 week",125.4 °C
same,HPLC purity,"[1]; 40° C./75% RH (open), 1 week",99.3%
same,"TGA loss (%, to 150° C.)","[1]; 40° C./75% RH (open), 1 week",0.9%
same,XRPD,"[1]; 40° C./75% RH (open), 1 week",Form A
same,DSC endotherm,"[1]; 40° C./75% RH (open), 4 week",125.1 °C
same,HPLC purity,"[1]; 40° C./75% RH (open), 4 week",98.7%
same,"TGA loss (%, to 150° C.)","[1]; 40° C./75% RH (open), 4 week",0.7%
same,XRPD,"[1]; 40° C./75% RH (open), 4 week",Form A
same,DSC endotherm,"[1]; 60° C. (open), 1 week",125.2 °C
same,HPLC purity,"[1]; 60° C. (open), 1 week",99.3%
same,"TGA loss (%, to 150° C.)","[1]; 60° C. (open), 1 week",0.7%
same,XRPD,"[1]; 60° C. (open), 1 week",Form A
same,DSC endotherm,"[1]; 60° C. (open), 4 week",125.1 °C
same,HPLC purity,"[1]; 60° C. (open), 4 week",98.8%
same,"TGA loss (%, to 150° C.)","[1]; 60° C. (open), 4 week",0.6%
same,XRPD,"[1]; 60° C. (open), 4 week",Form A
same,DSC endotherm,[1]; Initial,125.0 °C
same,HPLC purity,[1]; Initial,98.5%
same,"TGA loss (%, to 150° C.)",[1]; Initial,0.4%
same,XRPD,[1]; Initial,Form A
same,Cmax,"[2]; male, cynomolgus monkey, po, 25 mg/kg",25.4 ± 4.1 µM
same,AUC(0-t),"[2]; male, cynomolgus monkey, po, 25 mg/kg, read-out: AUC0-24 h",451 ± 84 µM·h
same,Tmax,"[2]; male, cynomolgus monkey, po, 25 mg/kg, read-out: Tmax",4 h
same,Cmax,"[3]; Wistar Han, rat, po, 25 mg/kg",105 ± 8 µM
same,AUC(0-t),"[3]; Wistar Han, rat, po, 25 mg/kg, read-out: AUC0-48 h",1700 ± 271 µM·h
same,Tmax,"[3]; rat, Wistar Han rats, read-out: Tmax",8 h
same,Solubility,[4]; FaSSIF,25 µg/mL
same,Solubility,[4]; FeSSIF,44 µg/mL
same,Solubility,[4]; SGF,46 µg/mL
same,Solubility,[4]; Water,9.7 µg/mL
same,Final XRPD,[4]; [10],Form A
same,Final XRPD,[4]; [11],Form A
same,Final XRPD,[4]; [12],Form A
same,Final XRPD,[4]; [13],Form A
same,aqueous solubility,[4]; listed as Compound I Form A,about 9.7 microgram/mL
same,Cmax,[5]; [14],9.8 ± 4.1 µM
same,AUC(0-t),[5]; [14],154 ± 44 µM·h
same,Tmax,"[5]; male, cynomolgus monkey, po, 15 mg/kg, micronized (d90 5), read-out: Tmax",8 h
same,Cmax,[5]; [15],5.6 ± 0.4 µM
same,AUC(0-t),[5]; [15],92 ± 24 µM·h
same,Tmax,"[5]; male, cynomolgus monkey, po, 15 mg/kg, unmicronized (d90 43), read-out: Tmax",4 h
same,Hygroscopicity,[6],Non-hygroscopic
same,weight change / form change after exposure to humidity,[6],no form change
same,Results (solid form after slurry),"[7]; ACN/water (1:2), 5 ° C., 8 day",Form C
same,Results (solid form after slurry),"[7]; ACN/water (1:2), 22 ° C., 8 day",Form C
same,Results (solid form after slurry),"[7]; ACN/water (1:2), 60 ° C., 6 day",Form C
same,solid form after slurry by XRPD and DSC,"[7]; Form A (10 mg) and Form C (10 mg) in saturated IPA/water and MeCN/water, 5-60° C., 6-8 days",only Form C was present
same,Results (solid form after slurry),"[7]; IPA/water (1:1), 5 ° C., 8 day",Form C
same,Results (solid form after slurry),"[7]; IPA/water (1:1), 22 ° C., 8 day",Form C
same,Results (solid form after slurry),"[7]; IPA/water (1:1), 60 ° C., 6 day",Form C
"O=C(COc1ccc(Cl)cc1)NC12CC(c3nnc([C@H]4C[C@@H](OC(F)(F)F)C4)o3)(C1)C2 (single isomer, unassigned) [Form C, 2-(4-chlorophenoxy)-N-[3-[5-[cis-3-(trifluoromethoxy)cyclobutyl]-1,3,4-oxadiazol-2-yl]-1-bicyclo[1.1.1]pentanyl]acetamide]",DSC endotherm,"[1]; 25° C./60% RH (open), 2 week",133.7 °C
same,HPLC purity,"[1]; 25° C./60% RH (open), 2 week",99.7%
same,"TGA loss (%, to 150° C.)","[1]; 25° C./60% RH (open), 2 week",0.4%
same,XRPD,"[1]; 25° C./60% RH (open), 2 week",Form C
same,DSC endotherm,"[1]; 25° C./60% RH (open), 4 week",133.3 °C
same,HPLC purity,"[1]; 25° C./60% RH (open), 4 week",99.7%
same,"TGA loss (%, to 150° C.)","[1]; 25° C./60% RH (open), 4 week",0.3%
same,XRPD,"[1]; 25° C./60% RH (open), 4 week",Form C
same,"solid form stability (form change, weight gain, purity changes)",[1]; [9],"No form change, weight gain, or purity changes"
same,DSC endotherm,"[1]; 40° C./75% RH (open), 2 week",133.6 °C
same,HPLC purity,"[1]; 40° C./75% RH (open), 2 week",99.7%
same,"TGA loss (%, to 150° C.)","[1]; 40° C./75% RH (open), 2 week",0.2%
same,XRPD,"[1]; 40° C./75% RH (open), 2 week",Form C
same,DSC endotherm,"[1]; 40° C./75% RH (open), 4 week",133.3 °C
same,HPLC purity,"[1]; 40° C./75% RH (open), 4 week",99.8%
same,"TGA loss (%, to 150° C.)","[1]; 40° C./75% RH (open), 4 week",0.2%
same,XRPD,"[1]; 40° C./75% RH (open), 4 week",Form C
same,DSC endotherm,"[1]; 60° C. (closed), 2 week",133.6 °C
same,HPLC purity,"[1]; 60° C. (closed), 2 week",99.8%
same,"TGA loss (%, to 150° C.)","[1]; 60° C. (closed), 2 week",0.3%
same,XRPD,"[1]; 60° C. (closed), 2 week",Form C
same,DSC endotherm,"[1]; 60° C. (closed), 4 week",133.0 °C
same,HPLC purity,"[1]; 60° C. (closed), 4 week",99.8%
same,"TGA loss (%, to 150° C.)","[1]; 60° C. (closed), 4 week",0.2%
same,XRPD,"[1]; 60° C. (closed), 4 week",Form C
same,DSC endotherm,[1]; Initial,133.1 °C
same,HPLC purity,[1]; Initial,99.8%
same,"TGA loss (%, to 150° C.)",[1]; Initial,0.1%
same,XRPD,[1]; Initial,Form C
same,AUC0-24 h,[2]; cynomolgus monkeys,367 ± 99 μM-hr
same,Cmax,[2]; cynomolgus monkeys,21.7 ± 4.2 µM
same,Tmax,[2]; cynomolgus monkeys,8 h
same,Tmax,[3]; Wistar Han rats,8 h
same,AUC0-48 h,"[3]; Wistar Han rats, 25 mg/kg",1658 ± 211 μM-hr
same,Cmax,"[3]; Wistar Han rats, 25 mg/kg",101 ± 10 µM
same,Solubility,[4]; FaSSIF,9.65 µg/mL
same,Solubility,[4]; FeSSIF,16.14 µg/mL
same,Solubility,[4]; SGF,0.56 µg/mL
same,Solubility,[4]; Water,1.02 µg/mL
same,Final XRPD,[4]; [10],Form C
same,Final XRPD,[4]; [11],Form C
same,Final XRPD,[4]; [12],Form C
same,Final XRPD,[4]; [13],Form C
same,aqueous solubility,[4]; listed as Compound I Form C,about 1.02 micrograms/mL
same,AUC0-24 h,[5]; [16],117 ± 39 μM-hr
same,Cmax,[5]; [16],7.6 ± 3.4 µM
same,Tmax,[5]; [16],4 h
same,Hygroscopicity,[6],Non-hygroscopic
same,weight change / form change after exposure to humidity,[6],no weight change and no polymorphic change
"O=C(COc1ccc(Cl)cc1)NC12CC(c3nnc([C@H]4C[C@@H](OC(F)(F)F)C4)o3)(C1)C2 [Form D, 2-(4-chlorophenoxy)-N-[3-[5-[cis-3-(trifluoromethoxy)cyclobutyl]-1,3,4-oxadiazol-2-yl]-1-bicyclo[1.1.1]pentanyl]acetamide]",storage stability of form,[8]; standing at room temperature or higher (25° C.-50° C.) for several days,convert to Form C
same,storage stability of form,[8]; stored at 5° C.,stable for 7 days
same,storage stability of form,"[8]; stored at RT-60° C., 7 days",converted to Form C
